According to ChEMBL document CHEMBL1123148, “Improved synthesis of 2'-deoxyformycin A and studies of its in vitro activity against mouse lymphoma of T-cell origin” (J Med Chem, 1985):
pIC50: −log10 of the molar value.

Tests used:
[1] = Compound evaluated for the inhibitory concentration of S49 Mouse Lymphoma T-cells; type: functional, cell-based
[2] = Compound along with 10 uM of erythro-9-(2-hydroxy-3-nonyl)adenine (EHNA) was tested against mouse lymphoma T-cells; type: functional

Structure (SMILES) | pIC50 [1] | pIC50 [2]
Nc1ncnc2c([C@H]3C[C@H](O)[C@@H](CO)O3)n[nH]c12 | 4.87 | 5.03
Nc1ncnc2c1ncn2[C@H]1C[C@H](O)[C@@H](CO)O1 [DEOXYADENOSINE] | 3.74 | 5.35
Nc1ncnc2c([C@@H]3O[C@H](CO)[C@@H](O)[C@H]3O)[nH]nc12 [FORMYCIN] | 5.64 | 7.52
